In the NIST ThermoML archive (doi:10.1016/j.jct.2016.04.020):

Experiment: mn = molality of the nth substance listed, in mol/kg
Details: 101.3 kPa, Liquid, Vibrating tube method

O=C([O-])CC(O)(CC(=O)[O-])C(=O)[O-].[NH4+].[NH4+].[NH4+] [ammonium 2-hydroxypropane-1,2,3-tricarboxylate] + O
mass density [kg/m3]
Details | m1 = 0.0125 | m1 = 0.025 | m1 = 0.04999 | m1 = 0.09998 | m1 = 0.1499 | m1 = 0.2
283.15 K | 1001.9 | 1003.43 | 1006.27 | 1011.68 | 1017.03 | 1022.12
287.15 K | 1001.25 | 1002.76 | 1005.56 | 1010.91 | 1016.2 | 1021.24
293.15 K | 1000.32 | 1001.83 | 1004.59 | 1009.9 | 1015.14 | 1020.13
298.15 K | 999.12 | 1000.6 | 1003.33 | 1008.6 | 1013.82 | 1018.77
303.15 K | 997.71 | 999.18 | 1001.88 | 1007.13 | 1012.32 | 1017.26
308.15 K | 996.07 | 997.53 | 1000.22 | 1005.44 | 1010.62 | 1015.55
313.15 K | 994.23 | 995.69 | 998.32 | 1003.56 | 1008.75 | 1013.67
318.15 K | 992.21 | 993.66 | 996.29 | 1001.54 | 1006.7 | 1011.63
323.15 K | 990.03 | 991.47 | 994.08 | 999.34 | 1004.49 | 1009.46
328.15 K | 987.68 | 989.12 | 991.7 | 996.99 | 1002.14 | 1007.11
333.15 K | 985.17 | 986.62 | 989.15 | 994.46 | 999.65 | 1004.59
